Experimental data from PMC12529750 (Emerging Microbes & Infections, 2025).

Legend:
Assay type in all cases: cell-based
[1] = tested on: SARS-CoV-2 ENS-EV1 (M49L and S144A in Mpro)
[2] = tested on: SARS-CoV-2 ENS-EV2 (M49L, S144A and T169I in Mpro)
SARS-CoV-2 M49L variant = tested on: SARS-CoV-2 M49L variant
SARS-CoV-2 S144A variant = tested on: SARS-CoV-2 S144A variant
[3] = tested on: SARS-CoV-2 M49L+S144A variant
[4] = tested on: SARS-CoV-2 M49L+E166A variant
SARS-CoV-2 T169I variant = tested on: SARS-CoV-2 T169I variant
[5] = tested on: SARS-CoV-2 M49L+S144A+T169I variant
[6] = tested on: SARS-CoV-2 L50F+E166V variant
[7] = tested on: SARS-CoV-2 NIR-EV L50F+E166V
SARS-CoV-2 E166G variant = tested on: SARS-CoV-2 E166G variant
SARS-CoV-2 E166H variant = tested on: SARS-CoV-2 E166H variant
SARS-CoV-2 E166Q variant = tested on: SARS-CoV-2 E166Q variant
SARS-CoV-2 E166S variant = tested on: SARS-CoV-2 E166S variant
[8] = tested on: SARS-CoV-2 replicon with M49L + S144A + T169I
[9] = tested on: SARS-CoV-2 replicon with M49L + E166A
SARS-CoV-2 E166L variant = tested on: SARS-CoV-2 E166L variant
[10] = tested on: SARS-CoV-2 replicon with E166A

Structure (SMILES) | Fold resistance, highest in VeroE6 or A549-hACE2 cells [1] | Fold resistance, highest in VeroE6 or A549-hACE2 cells [2] | Fold resistance, highest in VeroE6 or A549-hACE2 cells (SARS-CoV-2 M49L variant) | Fold resistance, highest in VeroE6 or A549-hACE2 cells (SARS-CoV-2 S144A variant) | Fold resistance, highest in VeroE6 or A549-hACE2 cells [3] | Fold resistance, highest in VeroE6 or A549-hACE2 cells [4] | Fold resistance, highest in VeroE6 or A549-hACE2 cells (SARS-CoV-2 T169I variant) | Fold resistance, highest in VeroE6 or A549-hACE2 cells [5] | Fold resistance, highest in VeroE6 or A549-hACE2 cells [6] | Fold resistance, highest in VeroE6 or A549-hACE2 cells [7] | Fold resistance, highest in VeroE6 or A549-hACE2 cells (SARS-CoV-2 E166G variant) [fold] | Fold resistance, highest in VeroE6 or A549-hACE2 cells (SARS-CoV-2 E166H variant) [fold] | Fold resistance, highest in VeroE6 or A549-hACE2 cells (SARS-CoV-2 E166Q variant) [fold] | Fold resistance, highest in VeroE6 or A549-hACE2 cells (SARS-CoV-2 E166S variant) [fold] | Resistance of replicon (% RLU in treated cultures) [8] | Resistance of replicon (% RLU in treated cultures) [9] | Fold resistance, highest in VeroE6 or A549-hACE2 cells (SARS-CoV-2 E166L variant) [fold] | Resistance of replicon (% RLU in treated cultures) [10]
Cn1cnc(Cn2c(=O)[nH]/c(=N\c3cc4cn(C)nc4cc3Cl)n(Cc3cc(F)c(F)cc3F)c2=O)n1 [ENS, Ensitrelvir] | up to 110 fold | up to 280 fold | up to 71 fold | up to 21 fold | up to 290 fold | up to 180 fold | up to 4.8 fold | up to 660 fold | up to 14 fold | up to 36 fold | < 5 | > 5 | < 5 | > 5 | highest resistance | lower resistance | – | –
CC(C)(C)[C@H](NC(=O)C(F)(F)F)C(=O)N1C[C@H]2[C@@H]([C@H]1C(=O)N[C@H](C#N)C[C@@H]1CCNC1=O)C2(C)C [NIR, Nirmatrelvir] | < 10 fold | < 10 fold | – | – | – | – | – | – | – | – | < 5 | – | < 5 | > 5 | – | relatively high resistance | > 5 | relatively high resistance
